According to paper PMC8125615 (Molecules, 2021):
Where two headings read alike, the source gives them in different places.

Legend:
SARS CoV M^pro = settings: cited from earlier work
SARS CoV-2 M^pro = SARS CoV-2 M^pro (Severe acute respiratory syndrome coronavirus 2, UniProt P0DTD1); assay: In vitro enzyme inhibition assay (SARS-CoV-2 main protease assay kit, fluorescence); type: biochemical
Description: GC376 was used as a reference standard inhibitor.
Briefly, 10 µL of test compounds of different concentrations were added into a 96-well plate followed by pipetting 30 µL of the diluted protease 15 µg/mL. The mixtures were incubated for 30 min at room temperature, and then 10 µL of the substrate was dissolved in the reaction buffer and added to reach a 50-µL final volume and 40-µM final concentration. The reaction mixture was then incubated for 4 h at 20 °C followed by measuring the produced fluorescence using a TECAN spark microplate-reading fluorimeter.

[1] = SARS CoV-2 M^pro, fluorescence kit assay, GC376 as reference standard, read-out: IC50

Row | SMILES | IC50 (SARS CoV M^pro) | IC50 (SARS CoV-2 M^pro) | IC50 (SARS CoV-2 M^pro; [1])
1 | C=C(C)[C@@H]1CC[C@]2(C(=O)O)CC[C@]3(C)[C@H](CC[C@@H]4[C@@]5(C)CC[C@H](O)C(C)(C)[C@@H]5CC[C@]43C)[C@@H]12 [betulinic acid] | 10 µM | 14.5 ± 1.3 µM | –
2 | CC1(C)CC[C@]2(C(=O)O)CC[C@]3(C)C(=CC[C@@H]4[C@@]5(C)C[C@@H](O)[C@H](O)C(C)(C)[C@@H]5CC[C@]43C)[C@@H]2C1 [maslinic acid] | – | – | 3.22 ± 0.26 µM
3 | C[C@H]1[C@H](C)CC[C@]2(C(=O)O)CC[C@]3(C)C(=CC[C@@H]4[C@@]5(C)CC[C@H](O)C(C)(C)[C@@H]5CC[C@]43C)[C@H]12 [ursolic acid] | – | – | 12.6 ± 0.28 µM
4 | C=C(C)[C@@H]1CC[C@]2(CO)CC[C@]3(C)[C@H](CC[C@@H]4[C@@]5(C)CC[C@H](O)C(C)(C)[C@@H]5CC[C@]43C)[C@@H]12 [betulin] | – | – | 89.7 µM
